Experimental data: patent US12544463B2, “Deuterium substituted positron emission tomography (PET) imaging agents and their pharmacological application” (Five Eleven Pharma Inc., priority 2017, dated 2026)
Several values for one entry are separate records, joined by “and”; a condition that tells them apart may be missing. Equal entries are not always repeated. Blank lines part the entries; values can stand above or below the molecule they belong to.

Assays:
[1] = Biodistribution in rats: ^18F-FP-(+)DTBZ vs ^18F-FP-DTBZ-D6; assay type: in vivo, rat; conditions: for Biodistribution Blood / Biodistribution Bone / Biodistribution Brain / Biodistribution Heart / Biodistribution Kidney / Biodistribution Liver / Biodistribution Lung / Biodistribution Muscle / Biodistribution Pancreas / Biodistribution Skin / Biodistribution Spleen: IV
Procedure: (§1) Three rats per group were used for each biodistribution study. While under isoflurane anesthesia, 0.2 mL of a saline solution containing 20 μCi of radioactive tracer was injected into the femoral vein. The rats were sacrificed at the time indicated by cardiac excision while under isoflurane anesthesia. Organs of interest were removed and weighed, and the radioactivity was counted. The percent dose per organ was calculated by comparing the tissue counts to counts of 1% of the initial dose (100 times diluted aliquots of the injected material) measured at the same time. Regional brain distribution in rats was measured after an iv injection of the radioactive tracer. Samples from different brain regions (cortex, striatum, hippocampus, cerebellum and hypothalamus) were dissected, weighed and counted. The percentage dose/g of each sample was calculated by comparing sample counts with the counts of the diluted initial dose described above. The ratio was calculated by dividing the percentage dose/g of each region by that of the cerebellum. The cerebellum was used as the reference region for calculating the ratio of target to non-target binding, because only a trace amount of VMAT2 binding site is present in the cerebellum.

[2] = biological target: T1, VMAT2 (Rattus norvegicus, UniProt Q01827); assay: Regional brain distribution and ratio vs cerebellum in rats (VMAT2 tracers); assay type: in vivo; conditions: IV
T1 construct: from tissue; host or cells: live rats (normal male CD rats), dissected brain regions
Procedure: as §1

[3] = 60 min, listed as 18F-FP-DTBZ-D6 (^18F-Ia)
[4] = 120 min, listed as 18F-FP-DTBZ-D6 (^18F-Ia)

T1 sequence (Q01827 whole entry): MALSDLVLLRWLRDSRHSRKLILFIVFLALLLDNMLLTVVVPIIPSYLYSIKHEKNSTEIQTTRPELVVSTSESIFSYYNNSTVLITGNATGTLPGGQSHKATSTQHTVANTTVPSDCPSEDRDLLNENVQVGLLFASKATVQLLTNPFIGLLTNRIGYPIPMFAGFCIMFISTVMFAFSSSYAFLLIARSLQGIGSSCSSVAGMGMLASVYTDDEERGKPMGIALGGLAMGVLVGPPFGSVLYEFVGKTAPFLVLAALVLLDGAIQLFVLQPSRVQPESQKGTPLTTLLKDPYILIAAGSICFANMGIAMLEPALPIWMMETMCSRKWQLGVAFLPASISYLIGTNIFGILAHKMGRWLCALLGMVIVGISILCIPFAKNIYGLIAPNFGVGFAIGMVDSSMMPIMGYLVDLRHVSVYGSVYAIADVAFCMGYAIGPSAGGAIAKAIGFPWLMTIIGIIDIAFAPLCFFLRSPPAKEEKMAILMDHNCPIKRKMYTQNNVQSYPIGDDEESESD

increase in total brain uptake vs ^18F-FP-(+)DTBZ ([1]; 120 min after iv injection): 40%
Biodistribution Blood ([1]; 2 min): 0.23 ± 0.03 % dose/g
Biodistribution Bone ([1]; 2 min): 0.33 ± 0.04 % dose/g
Biodistribution Brain ([1]; 2 min): 0.64 ± 0.07 % dose/g
Biodistribution Heart ([1]; 2 min): 0.69 ± 0.12 % dose/g
Biodistribution Kidney ([1]; 2 min): 1.89 ± 0.07 % dose/g
Biodistribution Liver ([1]; 2 min): 2.79 ± 0.12 % dose/g
Biodistribution Lung ([1]; 2 min): 0.87 ± 0.05 % dose/g
Biodistribution Muscle ([1]; 2 min): 0.17 ± 0.02 % dose/g
Biodistribution Pancreas ([1]; 2 min): 2.62 ± 0.15 % dose/g
Biodistribution Skin ([1]; 2 min): 0.24 ± 0.02 % dose/g
Biodistribution Spleen ([1]; 2 min): 1.04 ± 0.10 % dose/g
Biodistribution Blood ([1]; 60 min): 0.11 ± 0.01 % dose/g
Biodistribution Bone ([1]; 60 min): 0.47 ± 0.02 % dose/g
Biodistribution Brain ([1]; 60 min): 0.44 ± 0.02 % dose/g
Biodistribution Heart ([1]; 60 min): 0.26 ± 0.01 % dose/g
Biodistribution Kidney ([1]; 60 min): 0.66 ± 0.04 % dose/g
Biodistribution Liver ([1]; 60 min): 3.19 ± 0.46 % dose/g
Biodistribution Lung ([1]; 60 min): 0.49 ± 0.00 % dose/g
Biodistribution Muscle ([1]; 60 min): 0.11 ± 0.00 % dose/g
Biodistribution Pancreas ([1]; 60 min): 5.01 ± 0.69 % dose/g
Biodistribution Skin ([1]; 60 min): 0.25 ± 0.01 % dose/g
Biodistribution Spleen ([1]; 60 min): 0.66 ± 0.03 % dose/g
Biodistribution Bone [1, 3]: 0.47 % dose/g
Biodistribution Blood ([1]; 120 min): 0.10 ± 0.00 % dose/g
Biodistribution Bone ([1]; 120 min): 0.65 ± 0.03 % dose/g
Biodistribution Brain ([1]; 120 min): 0.34 ± 0.02 % dose/g
Biodistribution Heart ([1]; 120 min): 0.21 ± 0.01 % dose/g
Biodistribution Kidney ([1]; 120 min): 0.59 ± 0.02 % dose/g
Biodistribution Liver ([1]; 120 min): 3.10 ± 0.49 % dose/g
Biodistribution Lung ([1]; 120 min): 0.41 ± 0.01 % dose/g
Biodistribution Muscle ([1]; 120 min): 0.09 ± 0.01 % dose/g
Biodistribution Pancreas ([1]; 120 min): 4.49 ± 0.17 % dose/g
Biodistribution Skin ([1]; 120 min): 0.21 ± 0.01 % dose/g
Biodistribution Spleen ([1]; 120 min): 0.51 ± 0.03 % dose/g
Biodistribution Bone [1, 4]: 0.65 % dose/g
Biodistribution Brain [1, 4]: 0.34 % dose/g
Ratio vs. Cerebellum: Cerebellum ([2]; 2 min): 1.00 ± 0.00
Ratio vs. Cerebellum: Cortex ([2]; 2 min): 1.36 ± 0.05
Ratio vs. Cerebellum: Hippocampus ([2]; 2 min): 1.26 ± 0.04
Ratio vs. Cerebellum: Hypothalamus ([2]; 2 min): 1.71 ± 0.10
Ratio vs. Cerebellum: Remainder ([2]; 2 min): 1.33 ± 0.03
Ratio vs. Cerebellum: Striatum ([2]; 2 min): 2.08 ± 0.30
Regional Brain Distribution Cerebellum ([2]; 2 min): 0.48 ± 0.04 % dose/gram
Regional Brain Distribution Cortex ([2]; 2 min): 0.65 ± 0.07 % dose/gram
Regional Brain Distribution Hippocampus ([2]; 2 min): 0.60 ± 0.07 % dose/gram
Regional Brain Distribution Hypothalamus ([2]; 2 min): 0.82 ± 0.10 % dose/gram
Regional Brain Distribution Remainder ([2]; 2 min): 0.64 ± 0.07 % dose/gram
Regional Brain Distribution Striatum ([2]; 2 min): 1.00 ± 0.22 % dose/gram
Ratio vs. Cerebellum: Cerebellum ([2]; 60 min): 1.00 ± 0.00
Ratio vs. Cerebellum: Cortex ([2]; 60 min): 1.13 ± 0.02
Ratio vs. Cerebellum: Hippocampus ([2]; 60 min): 1.68 ± 0.12
Ratio vs. Cerebellum: Hypothalamus ([2]; 60 min): 3.93 ± 0.15
Ratio vs. Cerebellum: Remainder ([2]; 60 min): 1.59 ± 0.04
Ratio vs. Cerebellum: Striatum ([2]; 60 min): 6.05 ± 0.43
Regional Brain Distribution Cerebellum ([2]; 60 min): 0.23 ± 0.01 % dose/gram
Regional Brain Distribution Cortex ([2]; 60 min): 0.26 ± 0.01 % dose/gram
Regional Brain Distribution Hippocampus ([2]; 60 min): 0.39 ± 0.01 % dose/gram
Regional Brain Distribution Hypothalamus ([2]; 60 min): 0.91 ± 0.03 % dose/gram
Regional Brain Distribution Remainder ([2]; 60 min): 0.37 ± 0.02 % dose/gram
Regional Brain Distribution Striatum ([2]; 60 min): 1.40 ± 0.06 % dose/gram
Ratio vs. Cerebellum: Striatum [2, 3]: 6.05
Ratio vs. Cerebellum: Cerebellum ([2]; 120 min): 1.00 ± 0.00
Ratio vs. Cerebellum: Cortex ([2]; 120 min): 1.10 ± 0.09
Ratio vs. Cerebellum: Hippocampus ([2]; 120 min): 1.74 ± 0.32
Ratio vs. Cerebellum: Hypothalamus ([2]; 120 min): 3.56 ± 0.49
Ratio vs. Cerebellum: Remainder ([2]; 120 min): 1.52 ± 0.03
Ratio vs. Cerebellum: Striatum ([2]; 120 min): 5.49 ± 0.43
Regional Brain Distribution Cerebellum ([2]; 120 min): 0.18 ± 0.01 % dose/gram
Regional Brain Distribution Cortex ([2]; 120 min): 0.20 ± 0.00 % dose/gram
Regional Brain Distribution Hippocampus ([2]; 120 min): 0.31 ± 0.04 % dose/gram
Regional Brain Distribution Hypothalamus ([2]; 120 min): 0.65 ± 0.11 % dose/gram
Regional Brain Distribution Remainder ([2]; 120 min): 0.28 ± 0.02 % dose/gram
Regional Brain Distribution Striatum ([2]; 120 min): 1.00 ± 0.08 % dose/gram
SMILES: [2H]C([2H])([18F])C([2H])([2H])C([2H])([2H])Oc1cc2c(cc1OC)[C@H]1C[C@@H](O)[C@H](CC(C)C)CN1CC2 [^18F-FP-(+)DTBZ-D6 (^18F-Ia)]

Biodistribution Blood ([1]; 2 min): 0.24 ± 0.03 % dose/g
Biodistribution Bone ([1]; 2 min): 0.45 ± 0.03 % dose/g
Biodistribution Brain ([1]; 2 min): 0.83 ± 0.06 % dose/g
Biodistribution Heart ([1]; 2 min): 0.96 ± 0.08 % dose/g
Biodistribution Kidney ([1]; 2 min): 2.66 ± 0.15 % dose/g
Biodistribution Liver ([1]; 2 min): 2.28 ± 0.04 % dose/g
Biodistribution Lung ([1]; 2 min): 1.03 ± 0.03 % dose/g
Biodistribution Muscle ([1]; 2 min): 0.11 ± 0.02 % dose/g
Biodistribution Pancreas ([1]; 2 min): 2.29 ± 0.36 % dose/g
Biodistribution Skin ([1]; 2 min): 0.19 ± 0.03 % dose/g
Biodistribution Spleen ([1]; 2 min): 1.19 ± 0.10 % dose/g
Biodistribution Blood ([1]; 60 min): 0.12 ± 0.00 % dose/g
Biodistribution Bone ([1]; 60 min): 1.13 ± 0.07 % dose/g
Biodistribution Brain ([1]; 60 min): 0.35 ± 0.03 % dose/g
Biodistribution Heart ([1]; 60 min): 0.22 ± 0.03 % dose/g
Biodistribution Kidney ([1]; 60 min): 0.63 ± 0.05 % dose/g
Biodistribution Liver ([1]; 60 min): 2.59 ± 0.21 % dose/g
Biodistribution Lung ([1]; 60 min): 0.41 ± 0.03 % dose/g
Biodistribution Muscle ([1]; 60 min): 0.10 ± 0.01 % dose/g
Biodistribution Pancreas ([1]; 60 min): 4.48 ± 0.27 % dose/g
Biodistribution Skin ([1]; 60 min): 0.24 ± 0.03 % dose/g
Biodistribution Spleen ([1]; 60 min): 0.50 ± 0.04 % dose/g
Biodistribution Blood ([1]; 120 min): 0.07 ± 0.01 % dose/g
Biodistribution Bone ([1]; 120 min): 1.86 % dose/g and 1.86 ± 0.24 % dose/g
Biodistribution Brain ([1]; 120 min): 0.26 % dose/g and 0.26 ± 0.03 % dose/g
Biodistribution Heart ([1]; 120 min): 0.16 ± 0.01 % dose/g
Biodistribution Kidney ([1]; 120 min): 0.45 ± 0.02 % dose/g
Biodistribution Liver ([1]; 120 min): 2.12 ± 0.20 % dose/g
Biodistribution Lung ([1]; 120 min): 0.31 ± 0.02 % dose/g
Biodistribution Muscle ([1]; 120 min): 0.07 ± 0.00 % dose/g
Biodistribution Pancreas ([1]; 120 min): 3.56 ± 0.42 % dose/g
Biodistribution Skin ([1]; 120 min): 0.17 ± 0.01 % dose/g
Biodistribution Spleen ([1]; 120 min): 0.37 ± 0.05 % dose/g
Ratio vs. Cerebellum: Cerebellum ([2]; 2 min): 1.00 ± 0.00
Ratio vs. Cerebellum: Cortex ([2]; 2 min): 1.21 ± 0.04
Ratio vs. Cerebellum: Hippocampus ([2]; 2 min): 1.19 ± 0.03
Ratio vs. Cerebellum: Hypothalamus ([2]; 2 min): 1.57 ± 0.04
Ratio vs. Cerebellum: Remainder ([2]; 2 min): 1.23 ± 0.03
Ratio vs. Cerebellum: Striatum ([2]; 2 min): 1.66 ± 0.15
Regional Brain Distribution Cerebellum ([2]; 2 min): 0.68 ± 0.06 % dose/gram
Regional Brain Distribution Cortex ([2]; 2 min): 0.82 ± 0.07 % dose/gram
Regional Brain Distribution Hippocampus ([2]; 2 min): 0.80 ± 0.07 % dose/gram
Regional Brain Distribution Hypothalamus ([2]; 2 min): 1.06 ± 0.10 % dose/gram
Regional Brain Distribution Remainder ([2]; 2 min): 0.83 ± 0.06 % dose/gram
Regional Brain Distribution Striatum ([2]; 2 min): 1.12 ± 0.04 % dose/gram
Ratio vs. Cerebellum: Cerebellum ([2]; 60 min): 1.00 ± 0.00
Ratio vs. Cerebellum: Cortex ([2]; 60 min): 1.13 ± 0.09
Ratio vs. Cerebellum: Hippocampus ([2]; 60 min): 1.64 ± 0.19
Ratio vs. Cerebellum: Hypothalamus ([2]; 60 min): 3.91 ± 0.37
Ratio vs. Cerebellum: Remainder ([2]; 60 min): 1.68 ± 0.07
Ratio vs. Cerebellum: Striatum ([2]; 60 min): 5.66 and 5.66 ± 0.72
Regional Brain Distribution Cerebellum ([2]; 60 min): 0.19 ± 0.02 % dose/gram
Regional Brain Distribution Cortex ([2]; 60 min): 0.21 ± 0.01 % dose/gram
Regional Brain Distribution Hippocampus ([2]; 60 min): 0.30 ± 0.01 % dose/gram
Regional Brain Distribution Hypothalamus ([2]; 60 min): 0.73 ± 0.11 % dose/gram
Regional Brain Distribution Remainder ([2]; 60 min): 0.31 ± 0.02 % dose/gram
Regional Brain Distribution Striatum ([2]; 60 min): 1.04 ± 0.05 % dose/gram
Ratio vs. Cerebellum: Cerebellum ([2]; 120 min): 1.00 ± 0.00
Ratio vs. Cerebellum: Cortex ([2]; 120 min): 1.11 ± 0.09
Ratio vs. Cerebellum: Hippocampus ([2]; 120 min): 1.79 ± 0.12
Ratio vs. Cerebellum: Hypothalamus ([2]; 120 min): 4.04 ± 0.66
Ratio vs. Cerebellum: Remainder ([2]; 120 min): 1.59 ± 0.09
Ratio vs. Cerebellum: Striatum ([2]; 120 min): 6.54 ± 0.59
Regional Brain Distribution Cerebellum ([2]; 120 min): 0.13 ± 0.01 % dose/gram
Regional Brain Distribution Cortex ([2]; 120 min): 0.15 ± 0.02 % dose/gram
Regional Brain Distribution Hippocampus ([2]; 120 min): 0.24 ± 0.03 % dose/gram
Regional Brain Distribution Hypothalamus ([2]; 120 min): 0.54 ± 0.11 % dose/gram
Regional Brain Distribution Remainder ([2]; 120 min): 0.21 ± 0.02 % dose/gram
Regional Brain Distribution Striatum ([2]; 120 min): 0.87 ± 0.12 % dose/gram
SMILES: COc1cc2c(cc1OCCC[18F])CCN1C[C@@H](CC(C)C)[C@H](O)C[C@H]21 [^18F-FP-(+)DTBZ, reference compound]
